Measured values published in patent US20080009418A1, “Selective Inhibitors” (Alchemia LTD., priority 2004, published 2008).

Legend:
Human Melanocortin (MC3) = target: T1, Human Melanocortin (MC3) (Homo sapiens, UniProt P41968); experiment: Radioligand binding, human melanocortin MC3 membranes, FlashPlate, [125I]-NDP-αMSH; details: compound at 10 μM; [125I]-NDP-αMSH
T1 construct: purchased Perkin Elmer Biosignal
In short: (§1)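 Cloned human receptor membranes were coated onto FlashPlate wells and incubated with radioligand and compound (added from a 0.5 mM DMSO daughter plate) for 1 hour at room temperature in the dark. Scintillation counting gave percent inhibition, with DMSO defining total and reference ligand defining non-specific binding.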

Mouse urotensin (mUR2) = target: T2, Mouse urotensin (mUR2) (Mus musculus, UniProt Q8VIH9); experiment: Radioligand binding, mouse urotensin mUR2 membranes, FlashPlate, [125I]-Urotensin II; details: compound at 10 μM; [125I]-Urotensin II
T2 construct: purchased Perkin Elmer Biosignal
T2 sequence (Q8VIH9 1-385): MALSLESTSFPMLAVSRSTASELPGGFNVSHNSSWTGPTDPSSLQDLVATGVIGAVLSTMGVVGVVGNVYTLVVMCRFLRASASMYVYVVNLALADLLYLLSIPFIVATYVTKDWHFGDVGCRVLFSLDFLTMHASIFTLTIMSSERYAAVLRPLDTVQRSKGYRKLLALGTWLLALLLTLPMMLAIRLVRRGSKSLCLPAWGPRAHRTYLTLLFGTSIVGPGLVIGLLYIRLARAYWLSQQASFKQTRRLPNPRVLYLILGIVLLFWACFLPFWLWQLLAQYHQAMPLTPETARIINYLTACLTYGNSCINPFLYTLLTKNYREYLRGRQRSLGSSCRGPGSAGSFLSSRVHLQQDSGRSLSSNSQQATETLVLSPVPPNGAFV
In short: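 Cloned mouse urotensin (mUR2) receptor membranes from Perkin Elmer Biosignal were immobilized in FlashPlate microplates using a proprietary coating. Each well got 19.5 μl buffer, then 0.5 μl of DMSO, reference ligand, or compound. Adding 5 μl of [125I]-Urotensin II, diluted to 5× final concentration in binding buffer, started binding. Plates were sealed with TopSeal-A and incubated 1 hour at room temperature in the dark. Wells were counted for 30 seconds each on a TopCount after a 60-second delay, and percentage inhibition was calculated.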

Human κ-Opioid (KOP) = target: T3, Human κ-Opioid (KOP) (Homo sapiens, UniProt P41145); experiment: Radioligand binding, human κ-opioid (KOP) membranes, filtration, [3H]-Diprenorphine; details: compound at 10 μM; [3H]-Diprenorphine
T3 construct: purchased Perkin Elmer Biosignal
In short: (§2)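 Membranes from cloned human receptors were incubated with compound and radioligand for 1 hour at room temperature. Bound ligand was collected on 0.3% PEI-soaked filters, washed with cold 50 mM Tris-HCl pH 7.4, and counted by scintillation. Percent inhibition was computed against DMSO totals and reference-ligand nonspecific wells.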

Human δ-opioid (DOP) = target: T4, Human δ-opioid (DOP) (Homo sapiens, UniProt P41143); experiment: Radioligand binding, human δ-opioid (DOP) membranes, FlashPlate, [3H]-Bremazocine; details: compound at 10 μM; [3H]-Bremazocine
T4 construct: purchased Perkin Elmer Biosignal
In short: as §1

Human Melanocortin (MC4) = target: T5, Human Melanocortin (MC4) (Homo sapiens, UniProt P32245); experiment: Radioligand binding, human melanocortin MC4 membranes, FlashPlate, [125I]-NDP-αMSH; details: compound at 10 μM; [125I]-NDP-αMSH
T5 construct: purchased Perkin Elmer Biosignal
In short: as §1

Human μ-opioid (MOP) = target: T6, Human μ-opioid (MOP) (Homo sapiens, UniProt P35372); experiment: Radioligand binding, human μ-opioid (MOP) membranes, FlashPlate, [3H]-Naloxone; details: compound at 10 μM; [3H]-Naloxone
T6 construct: purchased Perkin Elmer Biosignal
In short: as §1

Human opioid (ORL1) = target: T7, Human opioid (ORL1) (Homo sapiens, UniProt P41146); experiment: Radioligand binding, human opioid ORL1 membranes, FlashPlate, [125I]-Nociceptin; details: compound at 10 μM; [125I]-Nociceptin
T7 construct: purchased Perkin Elmer Biosignal
In short: as §1

[1] = target: T8, Human melanin-concentrating hormone (MCH1) (Homo sapiens, UniProt Q99705); experiment: Radioligand binding, human melanin-concentrating hormone MCH1 membranes, FlashPlate, [125I]-S36057; details: compound at 10 μM; [125I]-S36057
T8 construct: purchased Perkin Elmer Biosignal
In short: as §1

[2] = target: T9, Human neuropeptide Y (NPY-Y1) (Homo sapiens, UniProt P25929); experiment: Radioligand binding, human neuropeptide Y NPY-Y1 membranes, FlashPlate, [125I]-PYY; details: compound at 10 μM; [125I]-PYY
T9 construct: purchased Perkin Elmer Biosignal
T9 sequence (P25929 1-384): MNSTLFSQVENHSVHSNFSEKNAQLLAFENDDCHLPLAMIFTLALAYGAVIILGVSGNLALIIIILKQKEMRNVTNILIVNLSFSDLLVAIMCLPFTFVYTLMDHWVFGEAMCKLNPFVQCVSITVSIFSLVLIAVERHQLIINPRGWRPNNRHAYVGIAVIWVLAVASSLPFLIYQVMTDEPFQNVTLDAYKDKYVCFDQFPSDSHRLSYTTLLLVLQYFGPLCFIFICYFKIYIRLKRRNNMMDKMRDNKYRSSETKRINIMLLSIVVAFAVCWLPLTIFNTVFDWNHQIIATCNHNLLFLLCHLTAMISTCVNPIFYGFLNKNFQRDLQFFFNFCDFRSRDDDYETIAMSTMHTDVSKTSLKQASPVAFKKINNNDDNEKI
In short: as §1

Human neurokinin (NK1) = target: T10, Human neurokinin (NK1) (Homo sapiens, UniProt P25103); experiment: Radioligand binding, human neurokinin NK1 membranes, filtration, [125I]-Substance P; details: compound at 10 μM; [125I]-Substance P
T10 construct: purchased Perkin Elmer Biosignal
In short: as §2

Human melanocortin (MC5) = target: T11, Human melanocortin (MC5) (Homo sapiens, UniProt P33032); experiment: Radioligand binding, human melanocortin MC5 membranes, FlashPlate, [125I]-NDP-αMSH; details: compound at 10 μM; [125I]-NDP-αMSH
T11 construct: purchased Perkin Elmer Biosignal
In short: as §1

T8 sequence (Q99705 whole entry): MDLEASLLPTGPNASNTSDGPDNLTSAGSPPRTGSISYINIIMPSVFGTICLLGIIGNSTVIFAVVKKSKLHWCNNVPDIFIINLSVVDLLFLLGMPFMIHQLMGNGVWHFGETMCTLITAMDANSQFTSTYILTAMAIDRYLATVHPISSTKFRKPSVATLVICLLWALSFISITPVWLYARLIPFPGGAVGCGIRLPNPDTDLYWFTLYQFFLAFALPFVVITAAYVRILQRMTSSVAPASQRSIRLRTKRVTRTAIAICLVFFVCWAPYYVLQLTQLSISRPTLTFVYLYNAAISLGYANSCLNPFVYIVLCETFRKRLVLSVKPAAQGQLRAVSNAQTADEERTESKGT
T5 sequence (P32245 whole entry): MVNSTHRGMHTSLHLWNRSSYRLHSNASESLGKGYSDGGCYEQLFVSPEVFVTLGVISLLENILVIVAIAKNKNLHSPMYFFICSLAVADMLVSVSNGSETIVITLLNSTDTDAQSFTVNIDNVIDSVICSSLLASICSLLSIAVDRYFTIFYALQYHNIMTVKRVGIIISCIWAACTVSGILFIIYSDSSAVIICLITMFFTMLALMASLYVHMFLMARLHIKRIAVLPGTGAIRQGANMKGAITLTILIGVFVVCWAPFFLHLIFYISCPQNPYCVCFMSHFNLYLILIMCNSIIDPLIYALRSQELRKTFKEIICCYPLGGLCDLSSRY
T7 sequence (P41146 whole entry): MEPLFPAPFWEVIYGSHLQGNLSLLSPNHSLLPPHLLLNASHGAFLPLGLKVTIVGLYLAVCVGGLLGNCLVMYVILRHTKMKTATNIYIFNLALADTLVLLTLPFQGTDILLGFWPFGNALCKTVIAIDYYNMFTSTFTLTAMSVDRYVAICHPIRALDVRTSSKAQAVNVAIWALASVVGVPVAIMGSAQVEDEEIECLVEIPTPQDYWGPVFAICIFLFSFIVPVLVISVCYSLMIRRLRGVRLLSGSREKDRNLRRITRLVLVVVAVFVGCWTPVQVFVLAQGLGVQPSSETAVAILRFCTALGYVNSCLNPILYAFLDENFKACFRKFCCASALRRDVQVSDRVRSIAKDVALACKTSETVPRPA
T3 sequence (P41145 whole entry): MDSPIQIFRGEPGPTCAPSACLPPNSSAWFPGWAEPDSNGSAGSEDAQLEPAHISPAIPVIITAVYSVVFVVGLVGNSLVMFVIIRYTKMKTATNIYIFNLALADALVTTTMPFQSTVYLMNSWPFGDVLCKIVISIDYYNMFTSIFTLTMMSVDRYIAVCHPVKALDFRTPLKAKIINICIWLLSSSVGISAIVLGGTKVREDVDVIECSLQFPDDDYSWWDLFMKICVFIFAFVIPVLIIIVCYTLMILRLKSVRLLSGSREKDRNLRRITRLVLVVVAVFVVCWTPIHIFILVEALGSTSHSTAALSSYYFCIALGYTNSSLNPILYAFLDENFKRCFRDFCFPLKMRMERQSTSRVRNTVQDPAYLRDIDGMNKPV
T11 sequence (P33032 whole entry): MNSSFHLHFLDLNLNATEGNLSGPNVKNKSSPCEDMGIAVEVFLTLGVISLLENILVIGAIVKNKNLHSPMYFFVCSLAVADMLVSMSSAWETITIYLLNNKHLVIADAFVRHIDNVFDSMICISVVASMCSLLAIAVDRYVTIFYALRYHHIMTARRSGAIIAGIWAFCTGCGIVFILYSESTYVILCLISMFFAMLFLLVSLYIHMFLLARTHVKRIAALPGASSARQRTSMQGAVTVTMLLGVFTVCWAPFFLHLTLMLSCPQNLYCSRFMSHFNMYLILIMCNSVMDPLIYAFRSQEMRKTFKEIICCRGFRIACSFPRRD
T4 sequence (P41143 whole entry): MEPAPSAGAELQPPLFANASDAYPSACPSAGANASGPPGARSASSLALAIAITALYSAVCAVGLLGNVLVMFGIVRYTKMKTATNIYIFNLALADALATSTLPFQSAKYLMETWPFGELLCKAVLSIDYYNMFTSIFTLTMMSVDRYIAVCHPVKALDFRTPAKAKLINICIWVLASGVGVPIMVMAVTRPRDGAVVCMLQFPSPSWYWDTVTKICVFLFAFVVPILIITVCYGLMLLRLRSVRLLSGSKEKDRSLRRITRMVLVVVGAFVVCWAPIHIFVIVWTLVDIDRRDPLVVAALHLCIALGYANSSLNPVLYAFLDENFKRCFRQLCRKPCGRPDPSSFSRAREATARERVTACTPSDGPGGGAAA
T10 sequence (P25103 whole entry): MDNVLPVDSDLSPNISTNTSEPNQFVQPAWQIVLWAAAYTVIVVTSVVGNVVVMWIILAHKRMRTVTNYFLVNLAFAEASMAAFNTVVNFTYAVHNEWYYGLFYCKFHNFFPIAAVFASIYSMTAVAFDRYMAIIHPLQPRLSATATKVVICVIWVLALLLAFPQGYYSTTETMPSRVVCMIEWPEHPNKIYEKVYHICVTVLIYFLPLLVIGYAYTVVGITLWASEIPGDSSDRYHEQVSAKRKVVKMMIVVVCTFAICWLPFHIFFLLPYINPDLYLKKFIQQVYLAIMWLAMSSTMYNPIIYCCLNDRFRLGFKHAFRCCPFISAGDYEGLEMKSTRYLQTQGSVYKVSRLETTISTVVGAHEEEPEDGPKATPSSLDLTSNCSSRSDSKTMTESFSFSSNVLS
T1 sequence (P41968 whole entry): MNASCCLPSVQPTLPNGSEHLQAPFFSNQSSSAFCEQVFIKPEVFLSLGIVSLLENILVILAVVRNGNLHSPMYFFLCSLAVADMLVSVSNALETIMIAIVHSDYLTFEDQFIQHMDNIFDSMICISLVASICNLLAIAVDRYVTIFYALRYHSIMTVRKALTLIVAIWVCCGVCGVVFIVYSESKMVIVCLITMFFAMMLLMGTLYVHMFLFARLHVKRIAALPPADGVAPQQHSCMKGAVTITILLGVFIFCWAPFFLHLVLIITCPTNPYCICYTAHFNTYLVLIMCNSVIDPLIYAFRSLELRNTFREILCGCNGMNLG
T6 sequence (P35372 whole entry): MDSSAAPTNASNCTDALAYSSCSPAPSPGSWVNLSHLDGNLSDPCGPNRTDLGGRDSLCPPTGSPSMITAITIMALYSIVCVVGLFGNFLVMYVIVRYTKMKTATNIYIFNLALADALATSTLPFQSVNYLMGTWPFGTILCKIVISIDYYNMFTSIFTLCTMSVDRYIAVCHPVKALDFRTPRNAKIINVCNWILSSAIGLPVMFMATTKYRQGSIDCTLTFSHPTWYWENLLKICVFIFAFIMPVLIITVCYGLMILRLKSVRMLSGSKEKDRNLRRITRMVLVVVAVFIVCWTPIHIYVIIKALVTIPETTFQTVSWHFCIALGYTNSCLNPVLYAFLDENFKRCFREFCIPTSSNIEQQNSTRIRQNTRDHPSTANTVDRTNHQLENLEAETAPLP

Row | SMILES | A3 radioligand binding, percentage inhibition (Human Melanocortin (MC3)) | A11 radioligand binding, percentage inhibition (Mouse urotensin (mUR2)) | A2 radioligand binding, percentage inhibition (Human κ-Opioid (KOP)) | A1 radioligand binding, percentage inhibition (Human δ-opioid (DOP)) | A4 radioligand binding, percentage inhibition (Human Melanocortin (MC4)) | A7 radioligand binding, percentage inhibition (Human μ-opioid (MOP)) | A10 radioligand binding, percentage inhibition (Human opioid (ORL1)) | A6 radioligand binding, percentage inhibition [1] | A9 radioligand binding, percentage inhibition [2] | A8 radioligand binding, percentage inhibition (Human neurokinin (NK1)) | A5 radioligand binding, percentage inhibition (Human melanocortin (MC5)) | further results
1 | COC[C@H]1OC(OCc2cccc(O)c2)[C@H](NC(=O)CCNC(=N)N)[C@@H](OCc2ccc(-c3ccccc3)cc2)[C@@H]1O (stereo partly drawn) [compound 142] | − (“−” indicates less than 50% inhibition at 10 μM) | − (“−” indicates less than 50% inhibition at 10 μM) | − (“−” indicates less than 50% inhibition at 10 μM) | − (“−” indicates less than 50% inhibition at 10 μM) | − (“−” indicates less than 50% inhibition at 10 μM) | − (“−” indicates less than 50% inhibition at 10 μM) | − (“−” indicates less than 50% inhibition at 10 μM) | + (“+” indicates greater than 50% inhibition at 10 μM) | − (“−” indicates less than 50% inhibition at 10 μM) | − (“−” indicates less than 50% inhibition at 10 μM) | − (“−” indicates less than 50% inhibition at 10 μM) | –
2 | NCCC(=O)NC1C(OCc2ccccc2)OC(COCc2ccc3ccccc3c2)C(O)C1OCc1ccc2ccccc2c1 (stereo not drawn) [compound 366] | – | – | – | – | – | – | – | – | – | – | – | A3: inhibition of radioligand binding, human melanocortin (MC3) (Human Melanocortin (MC3)): + (“+” indicates greater than 50% inhibition at 10 μM); A11: inhibition of radioligand binding, mouse urotensin (mUR2) (Mouse urotensin (mUR2)): − (“−” indicates less than 50% inhibition at 10 μM); A2: inhibition of radioligand binding, human κ-opioid (KOP) (Human κ-Opioid (KOP)): − (“−” indicates less than 50% inhibition at 10 μM); A1: inhibition of radioligand binding, human δ-opioid (DOP) (Human δ-opioid (DOP)): − (“−” indicates less than 50% inhibition at 10 μM); A4: inhibition of radioligand binding, human melanocortin (MC4) (Human Melanocortin (MC4)): + (“+” indicates greater than 50% inhibition at 10 μM); A7: inhibition of radioligand binding, human μ-opioid (MOP) (Human μ-opioid (MOP)): − (“−” indicates less than 50% inhibition at 10 μM); A10: inhibition of radioligand binding, human opioid (ORL1) (Human opioid (ORL1)): − (“−” indicates less than 50% inhibition at 10 μM); A6: inhibition of radioligand binding, human melanin-concentrating hormone (MCH1) [1]: − (“−” indicates less than 50% inhibition at 10 μM); A9: inhibition of radioligand binding, human neuropeptide Y (NPY-Y1) [2]: − (“−” indicates less than 50% inhibition at 10 μM); A8: inhibition of radioligand binding, human neurokinin (NK1) (Human neurokinin (NK1)): + (“+” indicates greater than 50% inhibition at 10 μM); A5: inhibition of radioligand binding, human melanocortin (MC5) (Human melanocortin (MC5)): + (“+” indicates greater than 50% inhibition at 10 μM)
3 | COCC1OC(OCc2ccccc2)C(NC(=O)CCNC(=N)N)C(OCc2ccccc2)C1O (stereo not drawn) [compound 173] | − (“−” indicates less than 50% inhibition at 10 μM) | − (“−” indicates less than 50% inhibition at 10 μM) | − (“−” indicates less than 50% inhibition at 10 μM) | − (“−” indicates less than 50% inhibition at 10 μM) | − (“−” indicates less than 50% inhibition at 10 μM) | − (“−” indicates less than 50% inhibition at 10 μM) | − (“−” indicates less than 50% inhibition at 10 μM) | − (“−” indicates less than 50% inhibition at 10 μM) | − (“−” indicates less than 50% inhibition at 10 μM) | + (“+” indicates greater than 50% inhibition at 10 μM) | − (“−” indicates less than 50% inhibition at 10 μM) | –
